In ChEMBL document CHEMBL1909046, “DrugMatrix in vitro pharmacology data”:

How the values were obtained:
[1] = molecular target: Protein kinase C alpha type (Homo sapiens, UniProt P17252); type: cell-based; settings: sf9;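 also: inhibition of PKCalpha kinase activity measured in an enzyme assay with histone as the phosphorylation substrate; in other assays of this panel Not Active means under 50% inhibition at 10 µM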
[2] = DRUGMATRIX: Nicotinic Acetylcholine radioligand binding (ligand: [125I] Epibatidine); type: cell membranes, Membrane; settings: imr-32; Not Active = under 50% inhibition at 10 µM
[3] = molecular target: 5-hydroxytryptamine receptor 1B (Rattus norvegicus, UniProt P28564); type: cell membranes, Wistar, Cerebral cortex, Membrane; also: in other assays of this panel Not Active means under 50% inhibition at 10 µM
5-hydroxytryptamine receptor 1B, sequence (P28564 whole entry): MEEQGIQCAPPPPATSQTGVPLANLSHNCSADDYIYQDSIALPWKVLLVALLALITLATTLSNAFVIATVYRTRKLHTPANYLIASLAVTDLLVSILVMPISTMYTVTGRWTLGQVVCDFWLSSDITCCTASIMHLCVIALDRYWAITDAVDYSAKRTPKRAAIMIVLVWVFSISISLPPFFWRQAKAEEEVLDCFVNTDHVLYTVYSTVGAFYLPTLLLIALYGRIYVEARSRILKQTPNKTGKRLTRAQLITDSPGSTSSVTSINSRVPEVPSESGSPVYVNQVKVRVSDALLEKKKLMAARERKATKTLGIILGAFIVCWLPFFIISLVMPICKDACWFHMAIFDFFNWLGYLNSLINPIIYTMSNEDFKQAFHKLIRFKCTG

[4] = molecular target: T1, Alpha-2C adrenergic receptor (Homo sapiens, UniProt P18825); experiment: DRUGMATRIX: Adrenergic Alpha-2C radioligand binding (ligand: [3H] MK-912); type: cell membranes, Sf9, Membrane; settings: sf9
T1 sequence (P18825 whole entry): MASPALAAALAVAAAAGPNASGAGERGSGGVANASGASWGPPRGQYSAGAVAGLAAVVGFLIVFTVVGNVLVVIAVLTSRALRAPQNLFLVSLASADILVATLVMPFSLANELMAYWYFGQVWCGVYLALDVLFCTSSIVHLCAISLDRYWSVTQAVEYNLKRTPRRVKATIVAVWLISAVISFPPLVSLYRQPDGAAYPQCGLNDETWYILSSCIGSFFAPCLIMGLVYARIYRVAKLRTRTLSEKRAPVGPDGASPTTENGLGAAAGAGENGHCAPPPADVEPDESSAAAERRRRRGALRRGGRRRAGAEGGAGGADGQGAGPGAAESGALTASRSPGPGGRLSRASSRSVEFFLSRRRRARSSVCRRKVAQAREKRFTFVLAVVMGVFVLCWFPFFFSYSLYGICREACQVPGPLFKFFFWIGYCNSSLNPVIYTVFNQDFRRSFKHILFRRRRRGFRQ

[5] = molecular target: 5-hydroxytryptamine receptor 2B (Homo sapiens, UniProt P41595); type: cell membranes, CHO-K1, Membrane; settings: cho-k1; also: in other assays of this panel Not Active means under 50% inhibition at 10 µM
5-hydroxytryptamine receptor 2B, sequence (P41595 whole entry): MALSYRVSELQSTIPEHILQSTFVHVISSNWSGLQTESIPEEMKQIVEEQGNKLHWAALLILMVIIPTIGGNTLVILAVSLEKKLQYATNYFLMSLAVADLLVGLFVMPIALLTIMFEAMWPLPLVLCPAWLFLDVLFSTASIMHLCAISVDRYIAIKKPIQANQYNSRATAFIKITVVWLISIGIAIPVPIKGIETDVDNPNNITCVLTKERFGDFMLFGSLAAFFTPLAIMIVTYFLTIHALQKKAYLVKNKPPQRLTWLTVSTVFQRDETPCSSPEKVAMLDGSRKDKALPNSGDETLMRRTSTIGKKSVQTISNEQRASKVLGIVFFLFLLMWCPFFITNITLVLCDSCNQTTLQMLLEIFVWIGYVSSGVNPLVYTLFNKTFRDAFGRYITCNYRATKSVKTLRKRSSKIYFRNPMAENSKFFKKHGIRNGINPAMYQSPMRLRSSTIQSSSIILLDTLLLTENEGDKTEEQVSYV

[6] = molecular target: T2, Vasoactive intestinal polypeptide receptor 1 (Homo sapiens, UniProt P32241); type: cell membranes, Membrane; settings: ht-29; also: in other assays of this panel Not Active means under 50% inhibition at 10 µM
T2 sequence (P32241 whole entry): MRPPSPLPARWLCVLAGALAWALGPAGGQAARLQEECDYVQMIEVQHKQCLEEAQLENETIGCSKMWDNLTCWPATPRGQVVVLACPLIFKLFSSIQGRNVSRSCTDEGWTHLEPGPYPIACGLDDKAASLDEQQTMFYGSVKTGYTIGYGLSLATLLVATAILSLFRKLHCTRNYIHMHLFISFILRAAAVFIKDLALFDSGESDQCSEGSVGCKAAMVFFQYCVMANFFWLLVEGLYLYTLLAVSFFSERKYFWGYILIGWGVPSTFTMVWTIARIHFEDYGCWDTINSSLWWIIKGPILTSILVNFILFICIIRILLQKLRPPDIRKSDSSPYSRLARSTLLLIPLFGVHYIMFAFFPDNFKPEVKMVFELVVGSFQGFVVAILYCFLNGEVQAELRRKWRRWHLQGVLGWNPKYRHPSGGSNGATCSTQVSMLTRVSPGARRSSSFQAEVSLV

[7] = DRUGMATRIX: Phosphodiesterase PDE3 enzyme inhibition (substrate: [3H]cAMP + cAMP); type: tissue-based, Homo sapiens; settings: platelet; Not Active = under 50% inhibition at 10 µM
Cytochrome P450 2D6 = Cytochrome P450 2D6 (Homo sapiens, UniProt P10635); settings: bti-tn-5b1-4; also: in other assays of this panel Not Active means under 50% inhibition at 10 µM
Cytochrome P450 2D6, sequence (P10635 whole entry): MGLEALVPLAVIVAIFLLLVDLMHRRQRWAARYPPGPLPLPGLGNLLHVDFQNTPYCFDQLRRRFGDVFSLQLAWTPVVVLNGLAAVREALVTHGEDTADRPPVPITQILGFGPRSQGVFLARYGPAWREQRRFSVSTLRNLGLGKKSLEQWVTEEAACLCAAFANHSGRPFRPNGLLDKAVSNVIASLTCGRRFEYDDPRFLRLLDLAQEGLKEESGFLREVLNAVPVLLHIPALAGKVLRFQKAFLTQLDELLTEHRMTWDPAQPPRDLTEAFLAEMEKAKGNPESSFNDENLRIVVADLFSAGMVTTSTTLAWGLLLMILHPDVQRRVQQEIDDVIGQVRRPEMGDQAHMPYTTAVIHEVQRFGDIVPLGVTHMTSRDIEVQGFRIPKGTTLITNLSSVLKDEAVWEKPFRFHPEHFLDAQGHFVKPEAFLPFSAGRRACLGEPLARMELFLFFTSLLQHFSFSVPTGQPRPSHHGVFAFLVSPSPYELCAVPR

D(1A) dopamine receptor = D(1A) dopamine receptor (Homo sapiens, UniProt P21728); experiment: DRUGMATRIX: Dopamine D1 radioligand binding (ligand: [3H] SCH-23390); type: cell membranes, CHO, Membrane; settings: cho; Not Active = under 50% inhibition at 10 µM
D(1A) dopamine receptor, sequence (P21728 whole entry): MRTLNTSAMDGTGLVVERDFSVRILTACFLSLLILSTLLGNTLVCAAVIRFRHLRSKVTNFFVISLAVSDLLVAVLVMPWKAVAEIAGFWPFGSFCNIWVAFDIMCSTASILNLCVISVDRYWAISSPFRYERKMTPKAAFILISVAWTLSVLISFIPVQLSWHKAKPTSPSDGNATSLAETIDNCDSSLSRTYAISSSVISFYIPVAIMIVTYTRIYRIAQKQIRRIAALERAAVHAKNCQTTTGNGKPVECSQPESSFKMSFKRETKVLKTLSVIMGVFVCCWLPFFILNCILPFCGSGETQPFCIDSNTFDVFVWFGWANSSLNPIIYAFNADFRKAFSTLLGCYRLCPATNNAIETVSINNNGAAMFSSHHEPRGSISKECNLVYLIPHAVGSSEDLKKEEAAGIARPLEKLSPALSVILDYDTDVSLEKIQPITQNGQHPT

Cytochrome P450 1A2 = molecular target: T3, Cytochrome P450 1A2 (Homo sapiens, UniProt P05177); settings: bti-tn-5b1-4; also: in other assays of this panel Not Active means under 50% inhibition at 10 µM
T3 sequence (P05177 whole entry): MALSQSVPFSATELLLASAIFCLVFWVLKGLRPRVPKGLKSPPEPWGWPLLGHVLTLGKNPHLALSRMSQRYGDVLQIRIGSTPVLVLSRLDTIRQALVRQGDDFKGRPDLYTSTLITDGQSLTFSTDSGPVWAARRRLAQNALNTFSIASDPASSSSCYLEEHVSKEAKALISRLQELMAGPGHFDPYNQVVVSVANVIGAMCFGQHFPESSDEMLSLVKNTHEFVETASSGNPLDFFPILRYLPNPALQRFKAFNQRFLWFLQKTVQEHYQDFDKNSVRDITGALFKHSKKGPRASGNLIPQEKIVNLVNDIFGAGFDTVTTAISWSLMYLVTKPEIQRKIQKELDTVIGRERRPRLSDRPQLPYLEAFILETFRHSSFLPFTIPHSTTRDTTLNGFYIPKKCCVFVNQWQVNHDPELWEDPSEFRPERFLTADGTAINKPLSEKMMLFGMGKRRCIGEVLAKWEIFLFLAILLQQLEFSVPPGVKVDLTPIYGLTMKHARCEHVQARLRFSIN

[8] = molecular target: Voltage-gated inwardly rectifying potassium channel KCNH2 (Homo sapiens, UniProt Q12809); settings: hek293; also: in other assays of this panel Not Active means under 50% inhibition at 10 µM
Voltage-gated inwardly rectifying potassium channel KCNH2, sequence (Q12809 whole entry): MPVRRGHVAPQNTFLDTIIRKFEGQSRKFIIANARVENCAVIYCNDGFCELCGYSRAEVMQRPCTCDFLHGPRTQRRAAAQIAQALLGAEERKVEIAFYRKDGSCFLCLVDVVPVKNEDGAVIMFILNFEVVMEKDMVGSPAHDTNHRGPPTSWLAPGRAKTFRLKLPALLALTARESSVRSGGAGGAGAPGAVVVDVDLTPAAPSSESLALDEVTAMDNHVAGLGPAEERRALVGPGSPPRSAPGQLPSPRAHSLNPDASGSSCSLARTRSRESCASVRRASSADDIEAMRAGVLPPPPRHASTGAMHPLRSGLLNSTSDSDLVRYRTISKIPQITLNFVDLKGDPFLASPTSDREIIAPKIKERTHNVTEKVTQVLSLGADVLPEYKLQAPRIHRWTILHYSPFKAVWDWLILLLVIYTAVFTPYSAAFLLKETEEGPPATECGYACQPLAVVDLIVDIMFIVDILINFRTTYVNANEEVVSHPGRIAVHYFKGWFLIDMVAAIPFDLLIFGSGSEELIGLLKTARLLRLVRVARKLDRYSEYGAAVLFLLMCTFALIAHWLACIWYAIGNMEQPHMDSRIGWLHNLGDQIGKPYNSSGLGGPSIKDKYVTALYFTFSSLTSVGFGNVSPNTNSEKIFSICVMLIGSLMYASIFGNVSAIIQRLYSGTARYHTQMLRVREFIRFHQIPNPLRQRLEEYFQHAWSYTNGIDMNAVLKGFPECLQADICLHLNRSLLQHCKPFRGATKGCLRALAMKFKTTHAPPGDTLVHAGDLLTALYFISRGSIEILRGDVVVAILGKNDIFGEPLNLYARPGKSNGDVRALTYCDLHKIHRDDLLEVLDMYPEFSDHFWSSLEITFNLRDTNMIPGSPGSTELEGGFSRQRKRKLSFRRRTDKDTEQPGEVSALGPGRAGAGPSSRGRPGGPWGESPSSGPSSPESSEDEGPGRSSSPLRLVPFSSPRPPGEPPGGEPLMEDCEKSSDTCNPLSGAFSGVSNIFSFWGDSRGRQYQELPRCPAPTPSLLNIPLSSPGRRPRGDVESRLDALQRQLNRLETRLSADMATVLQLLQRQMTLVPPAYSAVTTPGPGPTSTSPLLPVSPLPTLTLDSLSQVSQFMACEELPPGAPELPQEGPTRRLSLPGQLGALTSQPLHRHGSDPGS

Glucocorticoid receptor = molecular target: T4, Glucocorticoid receptor (Homo sapiens, UniProt P04150); settings: hela s3; also: in other assays of this panel Not Active means under 50% inhibition at 10 µM
T4 sequence (P04150 whole entry): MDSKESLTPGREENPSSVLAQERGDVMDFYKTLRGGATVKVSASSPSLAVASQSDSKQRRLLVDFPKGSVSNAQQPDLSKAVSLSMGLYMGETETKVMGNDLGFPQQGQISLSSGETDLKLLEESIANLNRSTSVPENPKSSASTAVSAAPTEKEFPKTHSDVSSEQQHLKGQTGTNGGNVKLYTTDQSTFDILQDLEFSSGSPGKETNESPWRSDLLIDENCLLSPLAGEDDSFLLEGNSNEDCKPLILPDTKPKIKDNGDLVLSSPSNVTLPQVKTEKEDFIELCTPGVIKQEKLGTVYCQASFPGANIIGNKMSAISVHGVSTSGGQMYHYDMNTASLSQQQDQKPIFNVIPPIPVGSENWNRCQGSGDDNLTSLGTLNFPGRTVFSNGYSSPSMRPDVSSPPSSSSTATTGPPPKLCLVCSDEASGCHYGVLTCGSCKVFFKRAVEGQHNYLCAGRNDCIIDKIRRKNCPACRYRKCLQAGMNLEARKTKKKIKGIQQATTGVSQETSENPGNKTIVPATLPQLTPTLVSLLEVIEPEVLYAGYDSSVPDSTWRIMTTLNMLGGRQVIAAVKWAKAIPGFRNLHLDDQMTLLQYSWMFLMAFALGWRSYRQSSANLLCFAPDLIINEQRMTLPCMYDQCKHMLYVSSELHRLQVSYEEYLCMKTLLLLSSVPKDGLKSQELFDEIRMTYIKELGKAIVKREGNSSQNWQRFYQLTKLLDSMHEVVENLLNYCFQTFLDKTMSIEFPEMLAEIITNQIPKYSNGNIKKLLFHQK

NNC(=O)c1ccncc1 [ISONIAZID]
Not Active: IC50 [1] | IC50 [2] | Ki [2] | IC50 [3] | IC50 [4] | IC50 [5] | IC50 [6] | IC50 [7] | Ki [7] | IC50 (Cytochrome P450 2D6) | Ki (Cytochrome P450 2D6) | IC50 (D(1A) dopamine receptor) | IC50 (Cytochrome P450 1A2) | Ki (Cytochrome P450 1A2) | IC50 [8] | Ki [8] | IC50 (Glucocorticoid receptor)

CO[C@@H]1[C@@H](O[C@@H]2O[C@H](C)[C@@H](O[C@H]3C[C@@](C)(O)[C@@H](OC(=O)CC(C)C)[C@H](C)O3)[C@H](N(C)C)[C@H]2O)[C@@H](CC=O)C[C@@H](C)[C@@H](O)/C=C/C=C/C[C@@H](C)OC(=O)C[C@H]1O [KITASAMYCIN]
Not Active: IC50 [1] | IC50 [2] | Ki [2] | IC50 [3] | IC50 [4] | IC50 [5] | IC50 [6] | IC50 [7] | Ki [7] | IC50 (Cytochrome P450 2D6) | Ki (Cytochrome P450 2D6) | IC50 (D(1A) dopamine receptor) | IC50 (Cytochrome P450 1A2) | Ki (Cytochrome P450 1A2) | IC50 [8] | Ki [8] | IC50 (Glucocorticoid receptor)

CCC[C@@H]1C[C@@H](C(=O)N[C@@H]([C@H]2O[C@H](SC)[C@H](O)[C@@H](O)[C@H]2O)[C@@H](C)O)N(C)C1 [LINCOMYCIN]
Not Active: IC50 [1] | IC50 [2] | Ki [2] | IC50 [3] | IC50 [4] | IC50 [5] | IC50 [6] | IC50 [7] | Ki [7] | IC50 (Cytochrome P450 2D6) | Ki (Cytochrome P450 2D6) | IC50 (D(1A) dopamine receptor) | IC50 (Cytochrome P450 1A2) | Ki (Cytochrome P450 1A2) | IC50 [8] | Ki [8] | IC50 (Glucocorticoid receptor)

COS(C)(=O)=O [METHANESULFONIC ACID METHYL ESTER]
Not Active: IC50 [1] | IC50 [2] | Ki [2] | IC50 [3] | IC50 [4] | IC50 [5] | IC50 [6] | IC50 [7] | Ki [7] | IC50 (Cytochrome P450 2D6) | Ki (Cytochrome P450 2D6) | IC50 (D(1A) dopamine receptor) | IC50 (Cytochrome P450 1A2) | Ki (Cytochrome P450 1A2) | IC50 [8] | Ki [8] | IC50 (Glucocorticoid receptor)

COC(=O)c1ccc(O)cc1 [METHYLPARABEN]
Not Active: IC50 [1] | IC50 [2] | Ki [2] | IC50 [3] | IC50 [4] | IC50 [5] | IC50 [6] | IC50 [7] | Ki [7] | IC50 (Cytochrome P450 2D6) | Ki (Cytochrome P450 2D6) | IC50 (D(1A) dopamine receptor) | IC50 (Cytochrome P450 1A2) | Ki (Cytochrome P450 1A2) | IC50 [8] | Ki [8] | IC50 (Glucocorticoid receptor)

C[C@](N)(Cc1ccc(O)cc1)C(=O)O [METYROSINE]
Not Active: IC50 [1] | IC50 [2] | Ki [2] | IC50 [3] | IC50 [4] | IC50 [5] | IC50 [6] | IC50 [7] | Ki [7] | IC50 (Cytochrome P450 2D6) | Ki (Cytochrome P450 2D6) | IC50 (D(1A) dopamine receptor) | IC50 (Cytochrome P450 1A2) | Ki (Cytochrome P450 1A2) | IC50 [8] | Ki [8] | IC50 (Glucocorticoid receptor)
